Measurements as given in patent publication US20090018121A1, “PREVENTIVE AND/OR THERAPEUTIC AGENT FOR RHEUMATOID ARTHRITIS” (Kowa Co., Ltd., priority 2005, published 2009).

Tested on: rat collagen-induced arthritis model
Experiment: Edema suppressing effect in both hindlimbs in rat collagen-induced arthritis model (Edema Index)
Format: in vivo, rat (female Lewis, LEW/Crj)
Set-up: Edema Index: unit not given here
Details: sole administration; for Relative index: Edema Index relative to control group; for Relative index / Decrease rate (%) / Edema Index: oral; for Decrease rate (%): of Edema Index vs control group; for Edema Index: mean ± SE
Description: Female Lewis rats (LEW/Crj) (obtained from Charles River Laboratories Japan, Inc.) were used as test animals.
This Pre value was used as an index to divide the rats into groups by one-parameter-based block randomization, so that the values in the respective groups averaged out.
The collagen emulsion for sensitization used to induce arthritis in rats was prepared by homogenizing 0.3% Type II collagen liquid (manufactured by Collagen Research Center), Adjuvant Peptide (manufactured by Peptide Institute, Inc.) and Adjuvant Incomplete Freund (manufactured by DIFCO), using a Handy Micro Homogenizer (manufactured by Microtec Nition) under ice-cooling. The collagen emulsion thus prepared was intracutaneously administered at 10 sites in the back of each rat at a dose of 0.1 mL/site, to perform initial sensitization of the rat. Seven days after initial sensitization, 0.12 mL of the same collagen emulsion was intracutaneously administered to the tail head of each rat, to perform booster sensitization.
Drug administration was conducted from the day after the initial sensitization through 18 days thereafter. Drug A and Drugs B-1, B-2 and B-4 were all orally administered two times a day, in the morning (9:00 to 11:00 AM) and in the evening (15:30 to 17:30 PM). Drug B-3 was orally administered once a day, around noon (11:30 AM to 13:30 PM).
14 Days and 18 days after the initial sensitization, respectively, the hindlimbs volume was measured again for each rat, and the difference between each of the values and the Pre value was determined to calculate the edema volume for both hindlimbs. The sum of the edema volumes for both hindlimbs measured 14 days and 18 days after the initial sensitization was calculated as the Edema Index, and this was taken as an index for the effect of the drug.
The Edema Index is represented by an average value±standard error for 8 rats in each group. Also, the decrease rate is represented by the formula: ((X−Y)/X)×100 (wherein X: average value of Edema Index for the control group, Y: average value of Edema Index for each group).

Cc1cnc(NC(=O)C2=C(O)c3ccccc3S(=O)(=O)N2C)s1 [Drug B-3, meloxicam]
Relative index (0.2 mg/kg, once a day): 0.58
Decrease rate (%) (0.2 mg/kg, once a day): 42%
Edema Index (0.2 mg/kg, once a day): 2.04 ± 0.10

CSc1ccc(-c2nn(Cc3ccccc3)c(=O)cc2-c2ccc(Cl)cc2)cc1 [Drug A, 2-benzyl-5-(4-chlorophenyl)-6-[4-(methylthio)phenyl]-2H-pyridazin-3-one]
Relative index (10 mg/kg, two times a day): 0.81
Decrease rate (%) (10 mg/kg, two times a day): 19%
Edema Index (10 mg/kg, two times a day): 2.93 ± 0.22

Cc1ccc(-c2cc(C(F)(F)F)nn2-c2ccc(S(N)(=O)=O)cc2)cc1 [Drug B-4, celecoxib]
Relative index (1 mg/kg, two times a day): 0.70
Relative index (3 mg/kg, two times a day): 0.61
Relative index (10 mg/kg, two times a day): 0.46
Decrease rate (%) (1 mg/kg, two times a day): 30%
Decrease rate (%) (3 mg/kg, two times a day): 39%
Decrease rate (%) (10 mg/kg, two times a day): 54%
Edema Index (1 mg/kg, two times a day): 3.41 ± 0.16
Decrease rate of Edema Index vs control group (%) (3 mg/kg): 39%
Edema Index (3 mg/kg, two times a day, through 18 days after initial sensitization, sum of edema volumes of both hindlimbs at days 14 and 18): 2.46 ± 0.22
Decrease rate of Edema Index vs control group (%) (10 mg/kg): 54%
Edema Index (10 mg/kg, two times a day): 1.86 ± 0.19

O=C(O)Cc1ccccc1Nc1c(Cl)cccc1Cl [Drug B-1, diclofenac sodium]
Relative index (1 mg/kg, two times a day): 0.33
Decrease rate (%) (1 mg/kg, two times a day): 67%
Edema Index (1 mg/kg, two times a day): 1.20 ± 0.26
